Laboratory results reported in patent US20110178016A1, “PULSE PARATHYROID HORMONE FOR TREATMENT OF THE HEM[…], STROMAL CELL LOSS, AND VASCULAR INJURY RESULTING FROM ACUTE EXPOSURE TO LETHAL RADIATION” (priority 2008, published 2011).
Entries after “also recorded” stand apart in the source; their conditions may differ.

Assays:
[1] = test system: macaque monkeys following chemo-ablative therapy and MHC mis-matched allogeneic stem cell transplant; test: Daily PTH after chemo-ablative conditioning and MHC mismatched allogeneic stem cell transplant; format: in vivo
Text: A previously unrecognized role for PTH on mitigation of myelosuppression in macaque monkeys is described. Following chemo-ablative therapy and MHC mis-matched allogeneic stem cell transplant, animals were randomized to daily PTH treatment (5 mcg/kg/day subcutaneously) or placebo. […] Following myeloablation, PTH may act to increase megakaryopoiesis through increased production of HSC.
Bone marrow transplant studies by Calvi and colleagues characterized this process in the syngeneic mouse model of osteoblastic activation. To see if PTH could enhance allogeneic stem cell engraftment in nonhuman primates (monkeys), donors were MHC mismatched based on recipient proliferation against donor cells in the mixed lymphocyte culture and by disparity at the class I antigen, Bw6. This disparity permitted tracking of Bw6+ donor cells following transplantation into Bw6-recipients. Eight control recipients were conditioned with thymoglobulin, rituxan, fludarabine, and melphalan. Six animals received the conditioning regimen supplemented with parathyroid hormone beginning on the first day of the conditioning regimen and administered daily at a dose of 5 micrograms/kg subcutaneously. An allogeneic stem cell transplant consisting of 2−4×10^6 CD34+cells/kg was administered on day 0. Outcome measures included PTH levels, CBCs, and donor engraftment via flow cytometry.

[2] = test system: mice exposed to lethal radiation (772 cGy); test: Survival of mice after lethal irradiation (772 cGy) with PTH treatment; format: in vivo, B6 mice; settings: for Thirty day survival: no treatment 50%; for 49 day survival: vehicle 60%
Experimental: In a study of 98 mice exposed to lethal irradiation, half received placebo (saline) and half received daily PTH 80 mcg/kg/day for 28 days. There was a survival advantage in the PTH treated group, 24/49 survived vs placebo, 16/49, (95% CI, 0.7707, 2.462).
80 ug/day PTH therapy followed lethal irradiation (772 cGy) exposure. 49 mice were treated with daily PTH (80 mcg/kg/d sc×28 days) 24 hours following a lethal radiation exposure of 772 cGy and compared to 49 vehicle treated control animals. Outcome measures included platelet counts, survival, and other hematopoietic studies. When censoring for technical deaths, 46 animals were analyzed in the placebo group (daily saline injections) with 47 analyzed from the daily PTH 80 mcg/kg/day treatment. […] Thirty-day survival in the placebo group was 18/46 or 39%. Of the PTH treated animals 26/47 animals survived (55%, p=0.2).
In another set of dose finding experiments, the same radiation exposure was used (772 cGy). Three treatment groups were studied: (1) untreated (no placebo, n=8), (2) treated with 200 mcg/kg PTH daily beginning 24 hours after radiation exposure, n=12, (3) treated with 200 mcg/kg PTH twice daily beginning 24 hours after radiation exposure, n=12.
Comparison was made of animals treated with PTH, 200 ug/day, 200 ug twice daily (BID) vs those receiving no PTH treatment following lethal irradiation (772 cGy).
Three groups of B6 mice underwent irradiation.
Group 1 received no treatment, n=8.
Group 2 received PTH, 200 micrograms/kg/day, n=10, first begun 24 hours following radiation exposure to 772 cGy and continued for 28 days.
Group 3 received the same duration of PTH but instead was treated twice daily, 200 micrograms/kg/day BID for a daily total dose of 400 mcg/kg/day, n=12.
Four cohorts of B6 mice were irradiated to uniform, total body, midline tissue dose at a dose rate of 80+2.5 cGy/min to a dose of 772 cGy.
Group 1 received vehicle control (saline) treatment×28 days, beginning 24 hours after radiation, n=10.
Group 2 received PTH, 400 micrograms/kg/day, n=10, first begun 24 hours following radiation exposure to 772 cGy and continued for 28 days.
Group 3 received PTH, 1000 micrograms/kg/day, n=10, 24 hours following radiation, and then 400 mcg/kg/day for 7 days.
Group 4 received PTH, 400 micrograms/kg/day, n=10, 24 hours following radiation, and continued for 7 days.

[3] = Serum PTH levels in mice after final dose (Mesoscale); format: in vivo; settings: 400 mcg/kg PTH, final dose on day 28
Experimental: Bone marrow was analyzed for colony forming units (CFU) (FIGS. 9A and 9B), hematopoietic stem cell content. Serum was analyzed for PTH levels on the final day of the study to determine the duration of detectable PTH in the serum following the final dose.

[4] = test system: cynomolgus monkeys; test: Toxicity studies of a 21 day course of PTH in monkeys (cardiac monitoring, serum calcium, kidney MRI); format: in vivo
Experimental: (§1) Two cynomolgus monkeys (hereafter referred to as CYNOs) were treated with a 21 day course of daily subcutaneous PTH at either 100 mcg/kg (monkey 7801) or 50 mcg/kg (monkey 7872). Hematopoietic outcome measures included:
(d) MRI of the kidneys upon completion of the 21 day course.
Three cynomolgus monkeys (hereafter referred to as CYNOs) were treated with a 21 day course of daily subcutaneous PTH at either 50 ug/kg (7872), 100 ug/kg (7801), or 250 ug/kg (7876).
Two were irradiated (7801 and 7875) at a lethal dose of 682 cGy and administered 100 ug/kg. Of note, 7801 underwent a washout period prior to undergoing irradiation and subsequent PTH therapy
Outcome measures included:
(a) continuous cardiac monitoring and serum calcium
(e) MRI of the kidneys upon completion of the 21 day course.

[5] = Serum PTH levels for PK analysis in non-irradiated monkeys; format: in vivo, cynomolgus monkeys; settings: non-irradiated monkeys 7801 (100 mcg/kg/d) and 7872 (50 mcg/kg/d), days 1 and 18
Experimental: PTH becomes undetectable by 4-6 hours after dosing, despite extremely high doses of PTH.
as §1
(c) serum PTH levels; and […]

[6] = test system: monkeys; settings: prolonged daily dosing, 4 months-2 years; cited from earlier work
[7] = clinical studies, cited from earlier work
[8] = macaques, PTH 5 mcg/kg/day sc, statistical significance by 4 weeks
[9] = CYNOs, 21 day course, 100 mcg/kg or 50 mcg/kg
[10] = highest dose, 250 ug/kg, administered for 21 days

Structure (SMILES): CC[C@H](C)[C@H](NC(=O)[C@H](CCC(=O)O)NC(=O)[C@H](CO)NC(=O)[C@@H](NC(=O)[C@@H](N)CO)C(C)C)C(=O)N[C@@H](CCC(N)=O)C(=O)N[C@@H](CC(C)C)C(=O)N[C@@H](CCSC)C(=O)N[C@@H](Cc1cnc[nH]1)C(=O)N[C@@H](CC(N)=O)C(=O)N[C@@H](CC(C)C)C(=O)NCC(=O)N[C@@H](CCCCN)C(=O)N[C@@H](Cc1cnc[nH]1)C(=O)N[C@@H](CC(C)C)C(=O)N[C@@H](CC(N)=O)C(=O)N[C@@H](CO)C(=O)N[C@@H](CCSC)C(=O)N[C@@H](CCC(=O)O)C(=O)N[C@@H](CCCN=C(N)N)C(=O)N[C@H](C(=O)N[C@@H](CCC(=O)O)C(=O)N[C@@H](Cc1c[nH]c2ccccc12)C(=O)N[C@@H](CC(C)C)C(=O)N[C@@H](CCCN=C(N)N)C(=O)N[C@@H](CCCCN)C(=O)N[C@@H](CCCCN)C(=O)N[C@@H](CC(C)C)C(=O)N[C@@H](CCC(N)=O)C(=O)N[C@@H](CC(=O)O)C(=O)N[C@H](C(=O)N[C@@H](Cc1cnc[nH]1)C(=O)N[C@@H](CC(N)=O)C(=O)N[C@@H](Cc1ccccc1)C(=O)O)C(C)C)C(C)C [PTH, Teriparatide]
- hemoglobin (serial CBCs) ([1]; PTH group vs control group): no significant difference
- engrafting donor B cells ([1]; macaques, PTH 5 mcg/kg/day sc): significantly increased
- host (recipient) T cells ([1]; macaques, PTH 5 mcg/kg/day sc): no significant increase; also recorded: little or no effect
- host or donor myeloid lineage CD14 or CD11b+ cells ([1]; macaques, PTH 5 mcg/kg/day sc): no significant increase
- engrafting donor T cells (CD4 and CD8 subsets) ([1]; macaques, PTH 5 mcg/kg/day sc vs control): significant increases; also recorded: significantly increased; also recorded: increased over control animals
- engrafting donor CD34+ cells [1, 8]: significantly increased; also recorded: significant increases
- host CD34+ stem cells [1, 8]: significantly increased; also recorded: significant increases
- platelet counts in peripheral blood ([1]; macaques, PTH 5 mcg/kg/day subcutaneously vs untreated controls, first observed 7 days after PTH therapy): statistically significant increase; also recorded: increased levels of platelets
- recipient granulocytes or natural killer cells ([1]; macaques, PTH 5 micrograms/kg sc daily): No effect
- iliac crest bone biopsy findings after vs before PTH treatment ([1]; monkeys 7150 and 7154, 5 weeks after PTH treatment): increased cortical bone, increased osteoblasts, and loss of adiposity; also recorded: adiposity was reduced, and cortical bone formation increased
- survival (survived/total) ([2]; 98 mice, lethal irradiation, PTH 80 mcg/kg/day for 28 days, placebo 16/49): 24/49
- reduction in mortality ([2]; 772 cGy, 200 mcg/kg experiments, LD50/30 changed to LD25/30): 25%
- thrombocytopenia duration or nadir ([2]; 772 cGy, PTH 80 mcg/kg/day vs placebo): no significant difference
- Thirty day survival ([2]; 772 cGy, PTH 200 mcg/kg daily for 28 days (8/12)): 67%
- Thirty day survival ([2]; 772 cGy, PTH 200 mcg/kg twice daily for 28 days (9/12)): 75%
- 49 day survival ([2]; 772 cGy, PTH 400 mcg/kg/day x 7 days (Group 4), p=0.02): 100%
- 49 day survival ([2]; 772 cGy, PTH 400 micrograms/kg/day x 28 days (Group 2, 9/10), p=0.05): 90%
- 49 day survival ([2]; 772 cGy, PTH 1000 micrograms/kg/day then 400 mcg/kg/day for 7 days (Group 3, 9/10), p=0.05): 90%
- preputial inflammation and abscess among survivors ([2]; 1000 mcg/kg dose group, control survivors 3/6): ⅙
- 30-day survival ([2]; 7 day course of PTH 400 mcg/kg/day following an LD50/30 radiation exposure): 100%
- survival ([2]; daily or twice doses of PTH, lethal irradiation dose expected to result in 50% death of mice (summary)): 100%
- preputial inflammation and abscess / infection among survivors ([2]; other PTH groups (400 mcg/kg/day x 28 days or x 7 days), control survivors 3/6): None were observed; also recorded: prevents infection
- PTH in sera after final PTH dose [3]: some persistence of PTH at 24 hours
- time of return of serum PTH to baseline after final dose [3]: 48 h
- tolerability ([4]; 250 ug/kg up to 19 days, non-irradiated cynomolgus monkey): well tolerated
- Cardiac monitoring [4, 9]: some shortening of the Qt segment but no life threatening arrythmias
- serum calcium peak [4, 9]: ≤ 11.5 mg/dL
- time for serum calcium to return to normal range after dosing [4, 9]: 6 to 10 h
- T wave height and ST-intervals over time [4, 10]: some decrease
- arrhythmias [4, 10]: No life-threatening arrhythmias
- tolerance in toxicity studies ([4]; irradiated and non-irradiated monkeys, doses comparable to doses to ameliorate radiation damage): tolerated
- serum calcium levels ([4]; irradiated monkeys 7875 and 7801, 100 ug/kg, exception day 19 for 7801): normal calcium levels except one timepoint
- BUN or creatinine ([4]; monkeys 7801 (100 mcg/kg) and 7872 (50 mcg/kg), 21 day course): No change
- MRI examination of the kidneys ([4]; monkeys 7801 (100 mcg/kg) and 7872 (50 mcg/kg), after 21 day course): no cystic degeneration or tumors
- serum calcium level ([4]; non-irradiated animal 7876, 250 ug/kg, 21st day of dosing, with some somnolent behavior): 17 mg/dL
- toxicity during the first 20 days of dosing ([4]; three non-irradiated cynomolgus monkeys, 50, 100, 250 ug/kg, calcium slightly elevated): did not experience toxicity
- time after dosing by which PTH becomes undetectable in serum [5]: 4 to 6 h
- doses at which toxicity was observed [6]: > 0.04 mg/kg
- toxic effect ([7]; even with chronic treatment): no toxic effect
- biological potency vs full-length PTH protein [7]: comparable biological potency
